In ChEMBL document CHEMBL2007661, “Compounds: GSK PKIS; Assays: UNC Frye lab” (2012):
Values joined by “and” are separate entries in the source; they are usually repeats but may differ in a detail not shown here. Identical values can stand only once.

How the values were obtained:
[1] = target: T1, Inhibitor of nuclear factor kappa-B kinase subunit alpha (Homo sapiens) (UniProt O15111); settings: at 1 µM
T1 sequence (whole entry): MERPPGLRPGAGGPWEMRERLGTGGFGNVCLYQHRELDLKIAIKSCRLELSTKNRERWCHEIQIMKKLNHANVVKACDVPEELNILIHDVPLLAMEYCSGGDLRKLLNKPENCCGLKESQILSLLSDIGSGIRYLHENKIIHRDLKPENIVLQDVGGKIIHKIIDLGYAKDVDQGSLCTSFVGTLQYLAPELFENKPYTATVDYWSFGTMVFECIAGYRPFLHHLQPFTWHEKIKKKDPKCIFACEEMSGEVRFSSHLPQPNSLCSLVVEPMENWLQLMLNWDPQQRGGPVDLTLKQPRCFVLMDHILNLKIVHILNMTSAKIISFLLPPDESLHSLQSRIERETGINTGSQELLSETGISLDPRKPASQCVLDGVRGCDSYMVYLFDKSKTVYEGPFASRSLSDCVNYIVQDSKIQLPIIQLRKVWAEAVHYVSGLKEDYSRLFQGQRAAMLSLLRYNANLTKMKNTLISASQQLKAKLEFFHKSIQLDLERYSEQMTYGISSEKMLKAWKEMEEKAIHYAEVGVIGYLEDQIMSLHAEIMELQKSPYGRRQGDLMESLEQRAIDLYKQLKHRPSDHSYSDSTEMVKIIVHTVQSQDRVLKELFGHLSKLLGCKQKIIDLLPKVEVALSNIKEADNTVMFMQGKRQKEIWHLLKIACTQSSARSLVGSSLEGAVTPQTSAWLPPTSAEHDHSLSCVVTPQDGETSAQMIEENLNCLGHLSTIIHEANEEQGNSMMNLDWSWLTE

[2] = target: T2, Tyrosine-protein kinase Mer (Homo sapiens) (UniProt Q12866); settings: at 10 µM
T2 sequence (whole entry): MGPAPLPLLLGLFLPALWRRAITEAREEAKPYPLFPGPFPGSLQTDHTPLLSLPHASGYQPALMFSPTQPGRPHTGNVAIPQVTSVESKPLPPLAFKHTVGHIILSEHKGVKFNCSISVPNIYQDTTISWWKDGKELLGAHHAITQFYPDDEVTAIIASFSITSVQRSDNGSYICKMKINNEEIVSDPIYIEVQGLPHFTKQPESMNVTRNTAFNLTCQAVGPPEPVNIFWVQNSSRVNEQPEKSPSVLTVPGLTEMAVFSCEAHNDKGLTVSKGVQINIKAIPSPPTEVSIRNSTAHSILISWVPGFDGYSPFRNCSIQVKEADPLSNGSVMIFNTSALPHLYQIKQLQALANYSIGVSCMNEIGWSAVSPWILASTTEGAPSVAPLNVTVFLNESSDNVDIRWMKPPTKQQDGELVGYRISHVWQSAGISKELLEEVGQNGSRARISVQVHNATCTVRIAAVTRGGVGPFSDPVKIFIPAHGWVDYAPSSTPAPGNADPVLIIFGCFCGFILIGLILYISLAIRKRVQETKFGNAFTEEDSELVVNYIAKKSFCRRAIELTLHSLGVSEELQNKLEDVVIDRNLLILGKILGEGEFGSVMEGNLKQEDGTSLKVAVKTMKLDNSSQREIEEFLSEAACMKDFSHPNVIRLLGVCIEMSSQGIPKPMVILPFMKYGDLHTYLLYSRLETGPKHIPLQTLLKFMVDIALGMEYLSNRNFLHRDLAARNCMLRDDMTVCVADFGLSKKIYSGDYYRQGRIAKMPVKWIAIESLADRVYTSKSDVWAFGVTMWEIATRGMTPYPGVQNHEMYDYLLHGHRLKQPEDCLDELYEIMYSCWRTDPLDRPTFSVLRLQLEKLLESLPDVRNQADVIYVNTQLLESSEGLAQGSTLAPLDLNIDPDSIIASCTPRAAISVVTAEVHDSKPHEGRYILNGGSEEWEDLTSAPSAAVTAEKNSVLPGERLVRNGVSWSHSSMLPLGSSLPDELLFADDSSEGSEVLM

O=C(O[C@H]1CN[C@H](C#Cc2cc3ncnc(Nc4ccc5c(cnn5Cc5ccccc5)c4)c3s2)C1)N1CCOCC1
inhibition [1]: 4% and 3% | inhibition [2]: 15%

O=C(Nc1ccc(Oc2ccc3[nH]c(NC(=O)c4ccco4)nc3c2)cc1)Nc1cc(C(F)(F)F)ccc1F
inhibition [1]: -1% | inhibition [2]: 27%

C[C@@H](Oc1cc(-n2cnc3ccc(OCC4CCN(C)CC4)cc32)sc1C(N)=O)c1ccccc1C(F)(F)F
inhibition [1]: 3% | inhibition [2]: 5%

COc1cccc(-n2ncc3c(N/N=C/c4ccc(F)cc4)ncnc32)c1
inhibition [1]: 5% and 3% | inhibition [2]: -2%

CS(=O)(=O)CCNCc1ccc(-c2ccc3ncnc(Nc4ccc(OCc5ccccc5)c(C(F)(F)F)c4)c3c2)o1
inhibition [1]: 1% and -1% | inhibition [2]: -2%

CCc1ccc(Oc2nccc(-c3c(-c4ccc(F)cc4)ncn3C3CCNCC3)n2)cc1
inhibition [1]: 3% and 2% | inhibition [2]: -6%

CNC(=O)c1cncc(/C=C/c2ccccc2C)c1
inhibition [1]: 4% and -3% | inhibition [2]: -5%

CN(C)CCCNc1nccc(-c2c(-c3ccc(F)cc3)nn3cc(C(F)(F)F)ccc23)n1
inhibition [1]: 2% and 3% | inhibition [2]: 0%

Cc1ccc2c(-c3ccnc(Nc4ccccc4)n3)c(-c3ccc(F)cc3)nn2n1
inhibition [1]: 2% and 1% | inhibition [2]: 5%

NS(=O)(=O)c1ccc(Nc2ncc(-c3ccccc3)o2)cc1
inhibition [1]: 4% and 3% | inhibition [2]: 2%

O=C1NC(=O)C(N2CCc3ccccc32)=C1c1ccc(Cl)cc1
inhibition [1]: 8% and 9% | inhibition [2]: -6%

CCCN(CCS(C)(=O)=O)Cc1ccc(-c2ccc3ncnc(Nc4ccc(OCc5cccc(F)c5)c(Cl)c4)c3c2)o1
inhibition [1]: 2% and -1% | inhibition [2]: -3%

COc1ccc2[nH]c3c4[nH]c5ccc(OC)cc5c4c4c(c3c2c1)C(=O)NC4=O
inhibition [1]: 12% and 13% | inhibition [2]: 5%

CCn1c(-c2nonc2N)nc2c(N3CCCC3)nccc21
inhibition [1]: 3% and 2% | inhibition [2]: -3%

Cc1cccc(-c2n[nH]cc2-c2ccc3ncccc3n2)n1
inhibition [1]: 2% and 4% | inhibition [2]: -6%

Cc1nnc(-c2ccc(C)c(-c3ccc(C(=O)Nc4cccc(C#N)c4)cc3)c2)o1
inhibition [1]: -1% and 3% | inhibition [2]: 7%

OCc1ccc(-c2nc(-c3ccccn3)c(-c3ccc4c(c3)OCO4)[nH]2)cc1
inhibition [1]: 14% and 7% | inhibition [2]: -6%

COC(=O)Nc1nc2cc(Oc3cccc(NC(=O)Nc4cc(C(F)(F)F)ccc4F)c3)ccc2[nH]1
inhibition [1]: 0% and 2% | inhibition [2]: -10%

COc1cc(N2CCN(C(C)C)CC2)ccc1Nc1nc(Nc2cccc3ncccc23)c2cc[nH]c2n1
inhibition [1]: 2% and 9% | inhibition [2]: -5%

O=C(Nc1n[nH]c2nnc(-c3cccnc3)cc12)C1CC1
inhibition [1]: 5% and 7% | inhibition [2]: -7%

COc1cc(C)c(N(C)C(=O)CN(C)C)cc1Nc1nc(Nc2cccc(F)c2C(N)=O)c2cc[nH]c2n1
inhibition [1]: 4% and 3% | inhibition [2]: 50%

COc1cccc(-n2ncc3c(N/N=C/c4cccc(F)c4)ncnc32)c1
inhibition [1]: 1% and 0% | inhibition [2]: -3%

CC(C)(CO)CNC(=O)c1ccc2c(c1)/C(=N/Nc1ccc(S(N)(=O)=O)cc1)C(=O)N2
inhibition [1]: -7% and 1% | inhibition [2]: 9%

COc1cc2ncn(-c3cc(OCc4ccccc4C(F)(F)F)c(C(=O)N(C)C)s3)c2cc1OC
inhibition [1]: 1% and 0% | inhibition [2]: -10%

CCN1CCC(CC(=O)Nc2n[nH]c3nc(-c4cccs4)c(Br)cc23)CC1
inhibition [1]: -9% and 5% | inhibition [2]: -2%

c1ccc(-c2nc3n(c2-c2ccc4c(c2)OCO4)CCC3)nc1
inhibition [1]: 2% and 0% | inhibition [2]: -1%

COc1cc(Nc2ncc3c(C)nc(-c4cccc(C(F)(F)F)c4)n3n2)cc(OC)c1OC
inhibition [1]: 4% and 2% | inhibition [2]: 6%

Cc1cc(O)cc(C)c1/C=C/c1cncc(C(=O)N(C)C)c1
inhibition [1]: -8% and -5% | inhibition [2]: -4%

COc1cc(C)c(NC(=O)CN(C)C)cc1Nc1nc(Nc2cccc(F)c2C(N)=O)c2cc[nH]c2n1
inhibition [1]: 2% and 3% | inhibition [2]: 52%

Nc1nccc(-c2c(-c3ccc(F)cc3)nn3cc(C(F)(F)F)ccc23)n1
inhibition [1]: 1% and 0% | inhibition [2]: 88%

CCCN1CCC(c2ccc(Nc3nc(Nc4cc(F)ccc4C(N)=O)c4cc[nH]c4n3)c(OC)c2)CC1
inhibition [1]: 3% and 0% | inhibition [2]: 5%

Nc1nc(-c2ccc3c(c2)C(=Cc2cc(Br)c(O)c(Br)c2)C(=O)N3)cs1
inhibition [1]: 4% and 2% | inhibition [2]: -8%

NCc1ccc(-n2c(-c3nonc3N)nc3cnccc32)cc1
inhibition [1]: 40% and 38% | inhibition [2]: -3%

c1ccc(Nc2ncc(-c3ccccc3)o2)cc1
inhibition [1]: -1% and 0% | inhibition [2]: 0%

Fc1cccc(COc2ccc(Nc3ncncc3C#Cc3ccccc3)cc2Cl)c1
inhibition [1]: 2% and 5% | inhibition [2]: -5%

Nc1nc(-c2ccccn2)c(-c2ccc3ncccc3n2)s1
inhibition [1]: 5% | inhibition [2]: -5%

CN(c1ccc(NC(=O)NCCN2CCOCC2)cc1)c1ccnc(Nc2ccc(CS(C)(=O)=O)cc2)n1
inhibition [1]: 1% | inhibition [2]: 101%

CC(C)COC(=O)c1ccc2c(c1)/C(=C/Nc1ccc(S(N)(=O)=O)cc1)C(=O)N2
inhibition [1]: -4% and -9% | inhibition [2]: 0%

NS(=O)(=O)c1ccc(Nc2cc(-c3ccc(O)c(F)c3)n[nH]2)cc1
inhibition [1]: 1% and -1% | inhibition [2]: -1%

CN1CCC(C(=O)Nc2n[nH]c3nnc(-c4ccccc4)cc23)CC1
inhibition [1]: 3% | inhibition [2]: 1%

COC(=O)Nc1nc2cc(Oc3ccc(NC(=O)Nc4cccc(C(=O)O)c4)cc3)ccc2[nH]1
inhibition [1]: 2% and 4% | inhibition [2]: 94%

COc1cc(Nc2ncc(-c3ccccc3)o2)cc(OC)c1OC
inhibition [1]: 1% and 0% | inhibition [2]: 68%

NS(=O)(=O)c1ccc(N/N=C2\C(=O)Nc3cccc(CCc4ccncc4)c32)cc1
inhibition [1]: 5% | inhibition [2]: -5%

CC(C)c1ccc(Nc2nccc(-c3cnn4ncccc34)n2)cc1
inhibition [1]: 2% and -1% | inhibition [2]: 32%

CN1CCC(n2cnc(-c3ccc(F)cc3)c2-c2ccnc(Nc3ccccc3)n2)CC1
inhibition [1]: -1% and 0% | inhibition [2]: -1%

O=S(=O)(CCNCc1ccc(-c2ccc3ncnc(Nc4ccc(OCc5cccc(F)c5)c(Cl)c4)c3c2)o1)c1ccccc1
inhibition [1]: 4% and 12% | inhibition [2]: 72%

NC(=O)c1ccc(-c2nc(-c3ccccn3)c(-c3ccc4c(c3)OCO4)[nH]2)cc1
inhibition [1]: -3% | inhibition [2]: 1%

COc1cccc(-n2cnc3c(N/N=C/c4ccncc4)ncnc32)c1
inhibition [1]: 2% and -3% | inhibition [2]: -4%

CN(C)C(=O)O[C@H]1CN[C@H](C#Cc2cc3ncnc(Nc4ccc(OCc5cccc(F)c5)c(Cl)c4)c3s2)C1
inhibition [1]: 2% and 1% | inhibition [2]: 2%

Cc1nc(-c2ccccc2)n2nc(NCCCN3CCOCC3)ncc12
inhibition [1]: 1% | inhibition [2]: 39%

CCn1cc(-c2ccnc3[nH]ccc23)c(-c2cccc(NC(=O)Nc3ccc(OCc4ccccc4)cc3)c2)n1
inhibition [1]: -3% | inhibition [2]: -1%

O=C1NC(=O)C(c2ccc(Cl)cc2)=C1Nc1ccc(Cl)c(C(=O)O)c1
inhibition [1]: 3% | inhibition [2]: 62%

CCn1c(-c2nonc2N)nc2c(C#CC(C)(C)O)nc(OCCNC)cc21
inhibition [1]: 6% and 5% | inhibition [2]: -6%

COc1cc(/C=N/Nc2ncnc3c2cnn3C(C)C)ccc1O
inhibition [1]: -3% and 1% | inhibition [2]: 2%

CS(=O)(=O)CCNCc1ccc(-c2ccc3ncnc(Nc4ccc(OCc5ccccc5)c(Cl)c4)c3c2)o1
inhibition [1]: 8% and 2% | inhibition [2]: 89%

Cc1nn(C)c2cc(N(C)c3ccnc(Nc4cccc(S(N)(=O)=O)c4)n3)ccc12
inhibition [1]: -8% and 0% | inhibition [2]: -8%

COc1cc2c(cc1Nc1nc(N3CCc4ccccc43)c3cc[nH]c3n1)N(C(=O)CN(C)C)CC2
inhibition [1]: 3% | inhibition [2]: 3%
